Measurements published in US8247170B2, “Detection of penicillin tolerance in Group B Streptococcus: single nucleotide polymorphisms in penicillin binding protein 4” (priority 2008, dated 2012).

System: GBS clinical isolates and laboratory strains
Test: Macrobroth penicillin tolerance assay
Format: cell-based, Group B Streptococcus
Conditions: then 24 h drug-free; for 30xMIC, regrowth O.D.600: Penicillin G 30×MIC90 48 h; for 100xMIC, regrowth O.D.600: Penicillin G 100×MIC90 48 h; for 300xMIC, regrowth O.D.600: Penicillin G 300×MIC90 48 h; for 10xMIC, regrowth O.D.600: Penicillin G 10×MIC90 48 h
Description: Using this modified penicillin tolerance assay, tolerant strains from the GBS clinical isolates can be more efficiently identified. In this macrobroth culture format, 25 ml THB broth GBS cultures (containing clinical isolates) were grown to an early exponential growth phase (˜0.2 OD600). Cell cultures (6 ml) were collected and divided into 4 culture tubes. […] Cell cultures were shaken at 150 rpm in order to maintain cells in suspension for proper growth. Subcultures (1/20 dilution) of cells were put into fresh THB containing […] Penase (i.e., 100 μl of Penase 10,000 U stock into 4 ml THB culture). Subcultures were allowed to grow for 24 hours at 37° C. Cell growth was monitored by OD (see Example 2).
(I) Bacterial Strains and Culture Conditions. GBS strains A909 (serotype IA), 515 (serotype IA), NEM316 (serotype III), COHI (serotype III), 2603V/R (serotype V) and O90R (non-typable) were used in this study. E. coli Top10 cells were used for the recombination experiments. GBS was cultured in Todd Hewitt broth (THB) or Tryptic Soy 5% sheep blood (TS) media and E. coli in Luria-broth (LB) medium or agar. Antibiotics were used at the following concentrations: for GBS—penicillin G (MIC90 0.06 μg ml^−1), ampicillin (MIC90 0.12 μg ml^−1), vancomycin (MIC90 2 μg ml^−1), cefazolin (MIC90 1 μg ml^−1) and chloramphenicol (5 μg ml^−1); for E. coli—ampicillin (50 μg ml^−1) and chloramphenicol (5 μg ml^−1). Both GBS and E. coli cultures were grown at 37° C. (II) Tolerance Using the MBC:MIC Ratio Method. Three GBS laboratory strains (i.e., A909, NEM316, and O90R) were cultured overnight for 18 h at 37° C. in THB. Subcultures in THB were subsequently grown to exponential phase (OD600˜0.3; i.e. 5×10^5 cfu/ml) at 37° C. Cell cultures were then exposed to different concentrations of antibiotics (Penicillin G, Ampicillin, Cefozolin or Vancomycin). […] Cell cultures were dispersed every 18 h before OD600 was measured to determine the lowest concentration of antibiotic with 90% growth inhibition (MIC90). Antibiotic treated cells (8 μl) from each well were re-suspended into PBS (100 μl) and plated (54 μl) on TS agar plates and allowed to grow for an additional 24 h at 37° C. Cell count was performed to determine the lowest concentration of antibiotic with 90% killing of original inoculums (MBC90). (III) Penicillin Killing and Regrowth Tolerance Assay by Microbroth Dilution. Three GBS laboratory strains (i.e., A909, NEM316, and O90R) were cultured overnight for 18 h at 37° C. in THB. Subcultures in THB were subsequently grown to exponential phase (OD600˜0.3) at 37° C. Cell cultures were then exposed to different concentrations of Penicillin G (Sigma, St. Louis, Mo.). […] Cell cultures were dispersed. A 1:20 dilution of cells was re-plated into new wells containing fresh THB with 500 U Penase (to degrade residual penicillin). Cell cultures were allowed to re-grow for an additional 24 h at 37° C. before the OD600 was measured. (IV) Measuring Cell Viability by Determining ATP Concentration. GBS strains were cultured for 18 h at 37° C. in THB. These cells were inoculated into fresh THB and subsequently allowed to grow to exponential phase (OD600 0.25-0.3) at 37° C. One ml of each culture was centrifuged at 5,000×g for 4 min. The cell pellet was re-suspended in ATP-free water. Cellular ATP was extracted using trichloroacetic acid (TCA) (5%) for 2 min and subsequently neutralized with Tris-EDTA-0.1M NaOAc, pH 7.75 to 10×TCA volume. The initial (in.) cellular ATP concentration ([ATP]) was measured using the ENLITEN (Promega) luciferase based reaction kit. THB cultures were then treated with 100×MIC90 Penicillin G for 22 h. The experimental (exp.) cellular ATP was extracted and the concentration was measured as stated above. Based on the calculations ([ATP] exp.)/([ATP] in./O.D. in.), differences in viability were equated with the change in [ATP]. (V) Measuring Penicillin Induced Lysis. Three GBS laboratory strains (A909, NEM316, and O90R) were cultured for 18 h at 37° C. in THB. […]

## CC1(C)S[C@@H]2[C@H](NC(=O)Cc3ccccc3)C(=O)N2[C@H]1C(=O)O [Penicillin G]
GBS strain 172 (NT)
  30xMIC, regrowth O.D.600: −− (“−−” indicates an O.D.600 of 0.001 to 0.099)
  100xMIC, regrowth O.D.600: −− (“−−” indicates an O.D.600 of 0.001 to 0.099)
  300xMIC, regrowth O.D.600: −− (“−−” indicates an O.D.600 of 0.001 to 0.099)
GBS strain 180 (V)
  10xMIC, regrowth O.D.600: −− (“−−” indicates an O.D.600 of 0.001 to 0.099)
  30xMIC, regrowth O.D.600: −− (“−−” indicates an O.D.600 of 0.001 to 0.099)
  100xMIC, regrowth O.D.600: −− (“−−” indicates an O.D.600 of 0.001 to 0.099)
  300xMIC, regrowth O.D.600: −− (“−−” indicates an O.D.600 of 0.001 to 0.099)
GBS strain 193 (III)
  10xMIC, regrowth O.D.600: −− (“−−” indicates an O.D.600 of 0.001 to 0.099)
  30xMIC, regrowth O.D.600: −− (“−−” indicates an O.D.600 of 0.001 to 0.099)
  100xMIC, regrowth O.D.600: −− (“−−” indicates an O.D.600 of 0.001 to 0.099)
  300xMIC, regrowth O.D.600: −− (“−−” indicates an O.D.600 of 0.001 to 0.099)
GBS strain 204 (V)
  10xMIC, regrowth O.D.600: −− (“−−” indicates an O.D.600 of 0.001 to 0.099)
  30xMIC, regrowth O.D.600: −− (“−−” indicates an O.D.600 of 0.001 to 0.099)
  100xMIC, regrowth O.D.600: −− (“−−” indicates an O.D.600 of 0.001 to 0.099)
  300xMIC, regrowth O.D.600: −− (“−−” indicates an O.D.600 of 0.001 to 0.099)
GBS strain 211 (Ib)
  10xMIC, regrowth O.D.600: −− (“−−” indicates an O.D.600 of 0.001 to 0.099)
  30xMIC, regrowth O.D.600: −− (“−−” indicates an O.D.600 of 0.001 to 0.099)
  100xMIC, regrowth O.D.600: −− (“−−” indicates an O.D.600 of 0.001 to 0.099)
  300xMIC, regrowth O.D.600: −− (“−−” indicates an O.D.600 of 0.001 to 0.099)
GBS strain 219 (Ia)
  10xMIC, regrowth O.D.600: + (“+” indicates an O.D.600 of 0.100 to 0.250)
  30xMIC, regrowth O.D.600: + (“+” indicates an O.D.600 of 0.100 to 0.250)
  100xMIC, regrowth O.D.600: + (“+” indicates an O.D.600 of 0.100 to 0.250)
  300xMIC, regrowth O.D.600: + (“+” indicates an O.D.600 of 0.100 to 0.250)
GBS strain 244 (Ib)
  10xMIC, regrowth O.D.600: −− (“−−” indicates an O.D.600 of 0.001 to 0.099)
  30xMIC, regrowth O.D.600: −− (“−−” indicates an O.D.600 of 0.001 to 0.099)
  100xMIC, regrowth O.D.600: −− (“−−” indicates an O.D.600 of 0.001 to 0.099)
  300xMIC, regrowth O.D.600: −− (“−−” indicates an O.D.600 of 0.001 to 0.099)
GBS strain 264 (V)
  10xMIC, regrowth O.D.600: +++ (“+++” indicates an O.D.600 of 0.751 to 1.500)
  30xMIC, regrowth O.D.600: ++ (“++” indicates an O.D.600 of 0.251 to 0.750)
  100xMIC, regrowth O.D.600: −− (“−−” indicates an O.D.600 of 0.001 to 0.099)
  300xMIC, regrowth O.D.600: ++ (“++” indicates an O.D.600 of 0.251 to 0.750)
GBS strain 268 (Ib)
  10xMIC, regrowth O.D.600: ++ (“++” indicates an O.D.600 of 0.251 to 0.750)
  30xMIC, regrowth O.D.600: −− (“−−” indicates an O.D.600 of 0.001 to 0.099)
  100xMIC, regrowth O.D.600: +++ (“+++” indicates an O.D.600 of 0.751 to 1.500)
  300xMIC, regrowth O.D.600: +++ (“+++” indicates an O.D.600 of 0.751 to 1.500)
GBS strain 272 (V)
  10xMIC, regrowth O.D.600: −− (“−−” indicates an O.D.600 of 0.001 to 0.099)
  30xMIC, regrowth O.D.600: −− (“−−” indicates an O.D.600 of 0.001 to 0.099)
  100xMIC, regrowth O.D.600: −− (“−−” indicates an O.D.600 of 0.001 to 0.099)
  300xMIC, regrowth O.D.600: −− (“−−” indicates an O.D.600 of 0.001 to 0.099)
GBS strain 273 (V)
  10xMIC, regrowth O.D.600: −− (“−−” indicates an O.D.600 of 0.001 to 0.099)
  30xMIC, regrowth O.D.600: −− (“−−” indicates an O.D.600 of 0.001 to 0.099)
  100xMIC, regrowth O.D.600: −− (“−−” indicates an O.D.600 of 0.001 to 0.099)
  300xMIC, regrowth O.D.600: ++ (“++” indicates an O.D.600 of 0.251 to 0.750)
GBS strain 279 (III)
  10xMIC, regrowth O.D.600: ++ (“++” indicates an O.D.600 of 0.251 to 0.750)
  30xMIC, regrowth O.D.600: +++ (“+++” indicates an O.D.600 of 0.751 to 1.500)
  100xMIC, regrowth O.D.600: ++ (“++” indicates an O.D.600 of 0.251 to 0.750)
  300xMIC, regrowth O.D.600: ++ (“++” indicates an O.D.600 of 0.251 to 0.750)
GBS strain 296 (Ia)
  10xMIC, regrowth O.D.600: −− (“−−” indicates an O.D.600 of 0.001 to 0.099)
  30xMIC, regrowth O.D.600: −− (“−−” indicates an O.D.600 of 0.001 to 0.099)
  100xMIC, regrowth O.D.600: ++ (“++” indicates an O.D.600 of 0.251 to 0.750)
  300xMIC, regrowth O.D.600: −− (“−−” indicates an O.D.600 of 0.001 to 0.099)
GBS strain 306 (II)
  10xMIC, regrowth O.D.600: −− (“−−” indicates an O.D.600 of 0.001 to 0.099)
  30xMIC, regrowth O.D.600: −− (“−−” indicates an O.D.600 of 0.001 to 0.099)
  100xMIC, regrowth O.D.600: −− (“−−” indicates an O.D.600 of 0.001 to 0.099)
  300xMIC, regrowth O.D.600: −− (“−−” indicates an O.D.600 of 0.001 to 0.099)
GBS strain 307 (II)
  10xMIC, regrowth O.D.600: −− (“−−” indicates an O.D.600 of 0.001 to 0.099)
  30xMIC, regrowth O.D.600: −− (“−−” indicates an O.D.600 of 0.001 to 0.099)
  100xMIC, regrowth O.D.600: −− (“−−” indicates an O.D.600 of 0.001 to 0.099)
  300xMIC, regrowth O.D.600: −− (“−−” indicates an O.D.600 of 0.001 to 0.099)
